Experimental findings from publication PMC4184797, “The Structure, Stability and Pheromone Binding of the Male Mouse Protein Sex Pheromone Darcin” (PLoS ONE, 2014) are described below.

What all share (type): binding
Assay [1] concerns the target T1, darcin (Mus musculus, UniProt Q5FW60).
T1 construct: gene Mup20; N-terminal His6-tagged recombinant darcin (mature protein)
T1 sequence (Q5FW60 20-181): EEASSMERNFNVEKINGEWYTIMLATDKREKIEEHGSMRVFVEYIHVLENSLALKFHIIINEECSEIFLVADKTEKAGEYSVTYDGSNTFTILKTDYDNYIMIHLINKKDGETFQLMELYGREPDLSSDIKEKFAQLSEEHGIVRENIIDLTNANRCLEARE
Briefly: 1H-15N HSQC NMR chemical shift perturbation.

The target of assay [2] is T2, MUP11 (Mus musculus, UniProt P04938).
T2 construct: N-terminal His6-tagged recombinant MUP11 (mature protein)
T2 sequence (P04938 20-181): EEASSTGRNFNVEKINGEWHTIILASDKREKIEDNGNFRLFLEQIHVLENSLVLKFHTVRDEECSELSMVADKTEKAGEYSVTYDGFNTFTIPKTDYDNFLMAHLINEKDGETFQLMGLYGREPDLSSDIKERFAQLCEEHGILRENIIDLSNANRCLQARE
Briefly: 1H-15N HSQC NMR chemical shift perturbation.

Assay [3] concerns the target T1, darcin. Briefly: ITC, one-site model, […] °C; also 1H-15N HSQC NMR titration. On the technique in general: ITC needs no label: the signal is the heat of the interaction.
Assay [4] deals with T2, MUP11. The assay is described as above.

SMILES strings stand for the structures.

As for `CC1=CC(=O)c2ccccc2C1=O` [K3, menadione], the “1H-15N HSQC NMR chemical shift perturbation” value in assay [1] was “The smaller ligands, K3 and SBT, bind to both darcin and MUP11 in the hydrophobic cavity of the beta barrel”; in assay [2], “The smaller ligands, K3 and SBT, bind to both darcin and MUP11 in the hydrophobic cavity of the beta barrel”.

As usually defined, the Kd is the constant that tells how readily two partners part at equilibrium. Low readings indicate tighter binding, high ones weaker binding. In the case of `CCC(C)c1nccs1` (stereo not shown) [SBT, 2-sec-butyl-thiazole], the results for the Kd in assay [3] and in assay [4] were roughly 0.173 µM and roughly 2.76 µM, respectively.
